The values that follow are results of earlier work, collected in patent US20180110888A1, “COMBINATIONS FOR THE TREATMENT OF CANCER” (BAYER PHARMA AKTIENGESELLSCHAFT, priority 2012, published 2018).

Series [1] deals with CRPC (Castration Resistant Prostate Cancer) and bone metastases.
For series [2] the following is noted: single dose 250 kBq per kg body weight.
Where [3] appears, read: phase 2 studies, patients with CRPC and bone metastases.

As to `C[C@]12CC[C@H](O)CC1=CC[C@@H]1[C@@H]2CC[C@]2(C)C(c3cccnc3)=CC[C@@H]12` [abiraterone], under “in vivo”, the excreted by feces is around 88%, the excreted by urine is listed as around 5% and the terminal half life is 12 ± 5 h. The “effect of administration with food” value (oral administration with food) was “increases absorption”.
On to `[Cl][223Ra][Cl]` [radium-223, Radium-223 dichloride], for which the “reduction in risk of death compared with placebo” value in series [1] (overall survival, patients with CRPC and bone metastases) was 30.5%. In addition, the “median survival longer than placebo by” value in series [1] (patients with CRPC and bone metastases) is recorded as 2.8 months. Besides, in series [1] (versus placebo), the “time to first skeletal-related event” value is “significantly prolonged”. Also, the safety profile result with bone metastases (phase 1 and 2 studies, patients with bone metastases) is “minimal myelotoxicity”. In the series with bone metastases (setting [3]), the “effect on disease-related biomarkers (bone ALP, PSA)” value was “improves disease-related biomarkers” and the effect on pain result is listed as “reduces pain”. In series [2], the “cases of grade 3 neutropenia” value was 1/5; the observed adverse reactions result was “diarrhea and reversible myelosuppression”.
